Source: patent US20040006061A1, “Alkoxybenzylamine” (priority 2001, published 2004)
Where two headings read alike, the source gives them in different places.

Experiments:
[1] = tested on: Staphylococcus hominis DSM 20328; test: Determination of the Minimum Inhibitory Concentration (MIC value) in microtitre plates, Staphylococcus hominis; assay type: cell-based; settings: for MIC: Staphylococcus hominis, DSM20328, 48 h, read-out: MIC [μg/ml] SH
Description: (§1) Determination of the Minimum Inhibitory Concentration (MIC Value) in Microtitre Plates
Casein-soybean flour-peptone broth for preparation of pre-cultures of test bacteria and yeast.
Staphylococcus hominis DSM 20328 […]
(§2) The test substances are pre-dissolved in dimethyl sulfoxide (DMSO) and tested in a dilution series of 1:2.
(§3) The bacteria are cultured overnight in CASO broth and washed off using 10 ml of 0.85% sodium chloride solution (+0.1% Triton X-100).
(§4) All the test organisms are adjusted to an organism count of 1-5×10^6 CFU/ml using 0.85% sodium chloride solution.
(§5) The test substances are pre-pipetted into microtitre plates in amounts of 8 μl per well.
(§6) Pre-diluted test organism suspensions are diluted 1:100 in CASO broth.
(§7) The test batches are incubated for 48 hours at 37° C.
(§8) After incubation, the growth is determined on the basis of the turbidity of the test batches (optical density) at 620 nm in a microplate reader.
(§9) The minimum inhibitory concentration (MIC value) is the concentration of substance at which there is found (compared to the growth of the control) an appreciable inhibition of growth (≦20% growth) of the test organisms.
(§10) One microtitre plate is used for each test organism and substance concentration.
(§11) All the substances are tested in duplicate.

[2] = tested on: Escherichia coli NCTC 8196; test: Determination of the Minimum Inhibitory Concentration (MIC value) in microtitre plates, Escherichia coli; assay type: cell-based; settings: Escherichia coli, NCTC8196, 48 h, read-out: MIC [μg/ml] EC
Description: as §1
Casein-soybean flour-peptone broth for preparation of pre-cultures of test bacteria and yeast. […]
Escherichia coli NCTC 8196
as §2, §3, §4, §5, §6, §7, §8, §9, §10, §11

[3] = Staphylococcus hominis DSM 20328, CASO broth, 48 hours at 37° C., MIC = ≦20% growth (optical density at 620 nm)
[4] = Escherichia coli NCTC 8196, CASO broth, 48 hours at 37° C., MIC = ≦20% growth (optical density at 620 nm)

Compound	MIC [1, 3] [µg/mL]	MIC [2, 4] [µg/mL]	MIC [1] [µg/mL]	MIC [2] [µg/mL]	MIC [μg/ml] SH ([1]; Staphylococcus hominis DSM 20328, CASO broth, 48 hours at 37° C., MIC = ≦20% growth (optical density at 620 nm), listed as (82)) [µg/mL]
CCCCCCCCCCCCOc1ccc(CN(C)CCCC)cc1OC [Compound of formula (9)]	15	> 120			
CCCCCCOc1ccc(CN2CCOCC2)cc1OC [Compound of formula (24)]	> 120	> 120			
CCCCCCOc1ccc(CN2CCCCC2)cc1OC [Compound of formula (5)]	> 120	> 120			
CCCCCCOc1ccc(CN(C)CCc2ccccn2)cc1OCCCCCC [Compound of formula (87)]	30	> 120			
CCCCCCCCCCCCN(C)Cc1ccc(OCCCCCC)c(OC)c1 [Compound of formula (35)]	15	> 120			
CCCOc1ccc(CN2CCNCC2)cc1OC [Compound of formula (69)]			> 120	> 120	
CCCCCCCCCCCCOc1ccc(CN2CCNCC2)cc1 [Compound of formula (85)]	> 120	> 120			
CCCCCCOc1ccc(CN2CCN(C)CC2)cc1OC [Compound of formula (28)]			> 120	> 120	
CCCCCCCCCCCCOc1ccc(CN(C)CCc2ccccn2)cc1 [Compound of formula (71)]	> 120	> 120			
CCCCCCCCCCCCOc1ccc(CN2CCN(c3cccc(OC)c3)CC2)cc1OC [Compound of formula (22)]	> 120	> 120			
CCCCCCCCOc1ccc(CN2CCN(CC)CC2)cc1OC [Compound of formula (49)]	60	120			
CCCCCCCCCCCCN(C)Cc1ccc(OCCC)c(OC)c1 [Compound of formula (67)]	60	> 120			
CCCCCCOc1ccc(CN2CCN(CC)CC2)cc1OC [Compound of formula (33)]			> 120	> 120	
CCCCCCOc1ccc(CN2CCN(C(C)=O)CC2)cc1OCCCCCC [Compound of formula (94)]	> 120	> 120			
CCCCCCCCCCCCOc1ccc(CN(C)Cc2ccccc2)cc1 [Compound of formula (79)]	60	> 120			
CCCOc1ccc(CN2CCN(CC)CC2)cc1OC [Compound of formula (65)]			> 120	> 120	
CCCCCCOc1ccc(CN2CCN(c3cccc(OC)c3)CC2)cc1OC [Compound of formula (38)]	> 120	> 120			
CCCOc1ccc(CN2CCN(C)CC2)cc1OC [Compound of formula (60)]			> 120	> 120	
CCCCCCCCCCCCOc1ccc(CN(C)C)cc1OC [Compound of formula (20)]	7.5	15			

Compound	MIC [1, 3] [µg/mL]	MIC [2, 4] [µg/mL]	MIC [1] [µg/mL]	MIC [2] [µg/mL]	MIC [μg/ml] SH ([1]; Staphylococcus hominis DSM 20328, CASO broth, 48 hours at 37° C., MIC = ≦20% growth (optical density at 620 nm), listed as (82)) [µg/mL]
CCCCCCCCOc1ccc(CN2CCNCC2)cc1OC [Compound of formula (53)]			> 120	> 120	
CCCCCCOc1ccc(CN2CCOCC2)cc1OCCCCCC [Compound of formula (88)]	> 120	> 120			
CCCOc1ccc(CN2CCCC2)cc1OC [Compound of formula (66)]	> 120	> 120			
CCCCCCCCCCCCOc1ccc(CN2CCN(CC)CC2)cc1OC [Compound of formula (17)]	7.5	> 120			
CCCCCCOc1ccc(CN(C)CCCC)cc1OC [Compound of formula (25)]	> 120	> 120			
CCCCCCCCCCCCOc1ccc(CN2CCOCC2)cc1OC [Compound of formula (8)]	> 120	> 120			
CCCCCCCCCCCCOc1ccc(CN(C)C)cc1 [Compound of formula (84)]	7.5	60			
CCCCCCOc1ccc(CN(C)CCCCCC)cc1OC [Compound of formula (32)]	60	7.5			
CCCCCCOc1ccc(CN(C(C)C)C(C)C)cc1OCCCCCC [Compound of formula (91)]	> 120	> 120			
CCCCCCCCCCCCOc1ccc(CN2CCCC2)cc1 [Compound of formula (82)]		60			7.5
CCCCCCCCCCCCOc1ccc(CN2CCNCC2)cc1OC [Compound of formula (21)]	> 120	> 120			
CCCCCCOc1ccc(CN2CCCCC2)cc1OCCCCCC [Compound of formula (102)]	7.5	> 120			
CCCCCCCCCCCCOc1ccc(CN2CCCCC2)cc1OC [Compound of formula (3)]	3.75	> 120			
CCCOc1ccc(CN(C)CCc2ccccn2)cc1OC [Compound of formula (55)]	> 120	> 120			
CCCCCCCCOc1ccc(CN2CCN(C(C)=O)CC2)cc1OC [Compound of formula (46)]	> 120	120			
CCCCCCCCOc1ccc(CN(C)CCc2ccccn2)cc1OC [Compound of formula (39)]	120	> 120			
CCCCCCCCCCCCOc1ccc(CN(C)CCCCCC)cc1 [Compound of formula (80)]	60	> 120			
CCCCCCCCCCCCN(C)Cc1ccc(OCCCCCCCC)c(OC)c1 [Compound of formula (51)]	> 120	> 120			
